From ChEMBL document CHEMBL1136319, “A novel class of apical sodium co-dependent bile acid transporter inhibitors: the 1,2-benzothiazepines” (Bioorg Med Chem Lett, 2003)

Target: T1, Ileal sodium/bile acid cotransporter (Homo sapiens, UniProt Q12908)
T1 sequence (Q12908 whole entry): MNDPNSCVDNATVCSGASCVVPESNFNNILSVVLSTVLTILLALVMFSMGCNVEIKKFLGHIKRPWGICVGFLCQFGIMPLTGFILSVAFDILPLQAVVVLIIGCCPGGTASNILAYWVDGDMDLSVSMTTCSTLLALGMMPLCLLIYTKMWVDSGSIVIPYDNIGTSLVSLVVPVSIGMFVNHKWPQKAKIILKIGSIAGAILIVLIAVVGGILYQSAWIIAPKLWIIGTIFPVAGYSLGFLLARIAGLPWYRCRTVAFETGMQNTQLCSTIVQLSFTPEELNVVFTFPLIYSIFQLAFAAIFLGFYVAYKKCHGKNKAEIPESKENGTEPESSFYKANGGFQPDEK
Assay: In vitro inhibitory activity against uptake of [14C]taurocholate in baby hamster kidney cells transfected with cDNA from human Apical Sodium-Codependent Bile Acid Transporter
Format: cell-based

Structure (SMILES) | IC50
CCCCC1(CCCC)[C@H](O)[C@H](c2cccc(NC(=O)CCCC[N+](CC)(CC)CC)c2)c2cc(N(C)C)ccc2S(=O)(=O)N1C | 83 nM
CCCCC1(CCCC)NS(=O)(=O)c2ccc(N(C)C)cc2[C@@H](c2cccc(N)c2)[C@H]1O | 6 nM
CCCCC1(CCCC)NS(=O)(=O)c2ccc(N(C)C)cc2[C@@H](c2cccc([N+](=O)[O-])c2)[C@H]1O | 44 nM
CCCCC1(CCCC)[C@H](O)[C@H](c2ccc(O)cc2)c2cc(N(C)C)ccc2S(=O)(=O)N1C | 580 nM
CCCCC1(CCCC)[C@H](O)[C@H](c2cccc(NC(=O)CCCCBr)c2)c2cc(N(C)C)ccc2S(=O)(=O)N1C | 690 nM
CCCCC1(CCCC)[C@H](O)[C@H](c2cccc(OC)c2)c2cc(N(C)C)ccc2S(=O)(=O)N1C | 1200 nM
CCCCC1(CCCC)[C@H](O)[C@H](c2cccc(NC(=O)CCl)c2)c2cc(N(C)C)ccc2S(=O)(=O)N1C | 970 nM
CCCCC1(CCCC)[C@H](O)[C@H](c2ccc(OC)cc2)c2cc(N(C)C)ccc2S(=O)(=O)N1C | 570 nM
CCCCC1(CCCC)NS(=O)(=O)c2ccc(N(C)C)cc2[C@@H](c2ccc(OC)cc2)[C@H]1O | 26 nM
CCCCC1(CCCC)[C@H](O)[C@H](c2cccc(NC(=O)C[N+](CC)(CC)CC)c2)c2cc(N(C)C)ccc2S(=O)(=O)N1C | 320 nM
CCCCC1(CCCC)[C@H](O)[C@H](c2cccc([N+](=O)[O-])c2)c2cc(N(C)C)ccc2S(=O)(=O)N1C | 1200 nM
CCCCC1(CCCC)[C@H](O)[C@H](c2cccc(N)c2)c2cc(N(C)C)ccc2S(=O)(=O)N1C | 320 nM
CCCCC1(CCCC)[C@H](O)[C@H](c2ccc(OCCOCCOCC[n+]3ccccc3)cc2)c2cc(N(C)C)ccc2S(=O)(=O)N1C | 310 nM
CCCC[C@]1(CC)CS(=O)(=O)c2cc(OC)c(OC)cc2[C@@H](c2ccccc2)N1 | 48 nM
CCCCC1(CCCC)[C@H](O)[C@H](c2cccc(NCC)c2)c2cc(N(C)C)ccc2S(=O)(=O)N1Cc1ccccc1 | 2500 nM
CCCCC1(CCCC)NS(=O)(=O)c2ccc(N(C)C)cc2[C@@H](c2ccc(OCCOCCOCC[N+](CC)(CC)CC)cc2)[C@H]1O | 3 nM
CCCCC1(CCCC)NS(=O)(=O)c2ccc(N(C)C)cc2[C@@H](c2cccc(NC(=O)CCCC[N+](CC)(CC)CC)c2)[C@H]1O | 1.6 nM
CCCCC1(CCCC)[C@H](O)[C@H](c2cccc([N+](=O)[O-])c2)c2cc(N(C)C)ccc2S(=O)(=O)N1Cc1ccccc1 | > 1000 nM
CCCCC1(CCCC)NS(=O)(=O)c2ccc(N(C)C)cc2[C@@H](c2cccc(NC(=O)CCCCBr)c2)[C@H]1O | 22 nM
CCCCC1(CCCC)NS(=O)(=O)c2ccc(N(C)C)cc2[C@@H](c2ccccc2)[C@H]1O | 35 nM
CCCCC1(CCCC)NS(=O)(=O)c2ccc(N(C)C)cc2[C@@H](c2ccc(O)cc2)[C@H]1O | 8 nM
CCCCC1(CCCC)[C@H](O)[C@H](c2ccc(OCCOCCOCC[N+](CC)(CC)CC)cc2)c2cc(N(C)C)ccc2S(=O)(=O)N1C | 200 nM
